Consider 14 molecules from ChEMBL document CHEMBL1201862, “PubChem BioAssay data set” (2004).

Molecules are shown by their SMILES.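 Protocol summary: plate cells (96-well), add compound at 5 concentrations, incubate 48 h, interpolate endpoints linearly. GI50 = concentration required for 50% inhibition of growth.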 Calls of active or inactive are those of the source. No stated cut-off is given here; in the data, active = GI50 up to about 1.1 µM and inactive = higher. Bounds are passed on as bounds.

Among the test systems are 786-0; A549; CAKI-1; HCT-116; HOP-62; HOP-92; M14; NCI-H460; SF-268; SF-295; SK-MEL-2; SK-OV-3; SN12C; SR; UO-31; SK-MEL-5.
What all share (assay): NCI-60 cell line screen, 48 h

As to `N#CCc1cccc(CC#N)c1Br`, the GI50 in the experiment with 786-0 is > 100 µM (inactive); with A549 it was > 100 µM (inactive); with CAKI-1 it was > 100 µM (inactive); with HCT-116, > 100 µM (inactive); in the experiment with HOP-62 it was > 100 µM (inactive); in the experiment on HOP-92 it was 45.2 µM (inactive). The GI50 in the experiment with M14 is > 100 µM (inactive); with NCI-H460, > 100 µM (inactive); in the experiment on SF-268, 86.5 µM (inactive); with SF-295, > 100 µM (inactive); in the experiment with SK-MEL-2, > 100 µM (inactive); with SK-OV-3, > 100 µM (inactive). Also, the GI50 in the experiment on SN12C, with SR and in the experiment on UO-31 was > 100 µM (inactive) each time.
In the case of `O=C(NC1C2CC3CC(C2)CC1C3)c1ccncn1` (stereo not given), the GI50 in the experiment on 786-0, with A549, in the experiment on CAKI-1, with HCT-116, in the experiment on HOP-62 and with HOP-92 was > 100 µM (inactive) in each case. The GI50 in the experiment on M14, in the experiment on NCI-H460, in the experiment on SF-268, with SF-295, in the experiment with SK-MEL-2 and with SK-MEL-5 was > 100 µM (inactive) each time. Further, the GI50 in the experiment with SN12C and with UO-31 was > 100 µM (inactive) throughout.
On to `O=C(N/N=C(\C1=Nc2ccc(Cl)cc2NC1O)C(O)/C=C/c1ccccc1)c1ccncc1` (stereo not given), for which the GI50 with 786-0 is > 100 µM (inactive); in the experiment on A549, > 100 µM (inactive); in the experiment on CAKI-1, > 100 µM (inactive); in the experiment on HCT-116, > 100 µM (inactive); in the experiment on HOP-62, > 100 µM (inactive); in the experiment on HOP-92 it was 54.5 µM (inactive). Moreover, the GI50 in the experiment with M14, in the experiment on NCI-H460, in the experiment with SF-268, with SF-295, in the experiment with SK-MEL-5 and in the experiment on SK-OV-3 was > 100 µM (inactive) each time. Also, the GI50 is > 100 µM (inactive) in the experiment on SN12C, > 100 µM (inactive) with SR and 30.8 µM (inactive) with UO-31.
For `C[C@@H](CC(O)C1OC1(C)C)[C@@H]1CC[C@]2(C)C3=CCC4C(C)(C)C(O)CC[C@]4(C)C3CCC12C` (stereo not given in full), the GI50 with 786-0 was 16 µM (inactive); in the experiment on A549 it was 12.7 µM (inactive); with HCT-116, 9.89 µM (inactive); in the experiment on HOP-62, 42.8 µM (inactive); in the experiment on HOP-92 it was 17.9 µM (inactive); in the experiment on M14 it was 13.9 µM (inactive). Besides, the GI50 in the experiment with NCI-H460 is 17.3 µM (inactive); with SF-268 it was 26.3 µM (inactive); in the experiment on SF-295, 13.7 µM (inactive); in the experiment with SK-MEL-2, 18.6 µM (inactive); in the experiment with SK-OV-3, 19.8 µM (inactive); in the experiment with SN12C, 42.2 µM (inactive). Besides, the GI50 with SR was 16.3 µM (inactive); in the experiment on UO-31, 18.6 µM (inactive).
For `O=C1c2ccccc2C(=O)N1CCn1ccc(NC(c2ccccc2)(c2ccccc2)c2ccccc2)nc1=O`, the GI50 in the experiment on 786-0 is 32 µM (inactive); in the experiment with A549 it was 28.2 µM (inactive); with CAKI-1, 9.62 µM (inactive); in the experiment on HCT-116, 17.5 µM (inactive); in the experiment on HOP-62, 17.5 µM (inactive); in the experiment on HOP-92 it was 18.5 µM (inactive). The GI50 in the experiment on M14 is 22 µM (inactive); with NCI-H460 it was 23.6 µM (inactive); in the experiment with SF-268, 19.2 µM (inactive); in the experiment with SF-295, 15.1 µM (inactive); in the experiment on SK-MEL-2, 20.5 µM (inactive); in the experiment with SK-MEL-5, 17.5 µM (inactive). For the same molecule, the GI50 in the experiment on SK-OV-3 is 43.8 µM (inactive); in the experiment on SN12C, 26.2 µM (inactive); in the experiment with UO-31, 21.2 µM (inactive).
`Cn1c2cccc3nnc4cccc(c4c32)n1C`: the GI50 in the experiment on 786-0 was > 100 µM (inactive); in the experiment on A549, > 100 µM (inactive); with CAKI-1 it was 21.2 µM (inactive); in the experiment on HCT-116 it was > 100 µM (inactive); in the experiment with HOP-92, > 100 µM (inactive); in the experiment with M14, > 100 µM (inactive). The GI50 in the experiment on NCI-H460, in the experiment on SF-268, with SF-295, in the experiment on SK-MEL-2, with SK-MEL-5 and in the experiment on SN12C was > 100 µM (inactive) each time. Further, the GI50 in the experiment on UO-31 is > 100 µM (inactive).
Regarding `CC(=O)O[C@H]1[C@H](O[C@H]2CC[C@]34C[C@]35CC[C@]3(C)[C@@H]([C@@]6(C)CC[C@@H](C(C)(C)O)O6)[C@@H](O)C[C@@]3(C)[C@@H]5C[C@H](O[C@@H]3O[C@H](CO)[C@@H](O)[C@H](O)[C@H]3O)[C@H]4C2(C)C)OC[C@@H](O)[C@@H]1O`, the GI50 in the experiment with 786-0 was 42.6 µM (inactive); in the experiment on A549, > 100 µM (inactive); in the experiment on CAKI-1, > 100 µM (inactive); in the experiment on HCT-116, > 100 µM (inactive); in the experiment with HOP-62, > 100 µM (inactive); in the experiment with HOP-92, > 100 µM (inactive). The GI50 in the experiment on M14 was 54.6 µM (inactive); in the experiment with NCI-H460, 71 µM (inactive); in the experiment with SF-268 it was > 100 µM (inactive); in the experiment on SF-295 it was > 100 µM (inactive); with SK-MEL-2 it was > 100 µM (inactive); in the experiment with SK-MEL-5, > 100 µM (inactive). Also, the GI50 with SK-OV-3, in the experiment with SN12C and in the experiment with UO-31 was > 100 µM (inactive) in each case.
For the molecule `COc1cc(C[S+]2CCCC2)c(SC)cc1C[S+]1CCCC1`, the GI50 with 786-0, in the experiment with A549, in the experiment on CAKI-1, with HCT-116, in the experiment on HOP-62 and with HOP-92 was > 100 µM (inactive) throughout. The GI50 in the experiment on M14, with NCI-H460, in the experiment with SF-268, in the experiment on SF-295, in the experiment on SK-MEL-2 and in the experiment with SK-MEL-5 was > 100 µM (inactive) throughout. For the same molecule, the GI50 in the experiment on SK-OV-3, with SN12C and with UO-31 was > 100 µM (inactive) in each case.
`CCOC(=O)c1cnc2c(ccc3ncccc32)c1NCCCN(CC)CC`: the GI50 with 786-0 was 37.9 µM (inactive); with A549, > 100 µM (inactive); with CAKI-1 it was > 100 µM (inactive); in the experiment on HOP-62, > 100 µM (inactive); with HOP-92, 65.8 µM (inactive); in the experiment on M14, 19.1 µM (inactive). For the same molecule, the GI50 in the experiment on NCI-H460 is 35.2 µM (inactive); with SF-268, 90.6 µM (inactive); in the experiment with SF-295, 86.7 µM (inactive); with SK-MEL-2, > 100 µM (inactive); in the experiment with SK-MEL-5 it was > 100 µM (inactive); with SK-OV-3, > 100 µM (inactive). Moreover, the GI50 in the experiment on UO-31 was 76.4 µM (inactive).
As for `CN(C)CCC(/C=C/c1ccccc1)=N\Nc1ccccc1`, the GI50 is 2.03 µM (inactive) in the experiment with 786-0; 1.73 µM (inactive) in the experiment with A549; 1.9 µM (inactive) with HCT-116; 2.59 µM (inactive) in the experiment with HOP-62; 2.72 µM (inactive) with M14; 1.41 µM (inactive) in the experiment with NCI-H460. The GI50 in the experiment with SF-268 was 0.736 µM (active); in the experiment on SF-295 it was 0.451 µM (active); in the experiment with SK-MEL-5, 3.48 µM (inactive); in the experiment on SK-OV-3, 3.56 µM (inactive); with SN12C, 2.74 µM (inactive); in the experiment on UO-31, 1.4 µM (inactive).
As for `CC(=O)Oc1cc(OC(C)=O)c2cc3c(cc2c1OC(C)=O)C(=O)C1(CCCC1)C3=O`, the GI50 in the experiment with 786-0 is 17.2 µM (inactive); in the experiment with A549 it was 19.1 µM (inactive); in the experiment on CAKI-1 it was 11.4 µM (inactive); in the experiment with HOP-62, 21.4 µM (inactive); in the experiment on HOP-92, 15.1 µM (inactive); in the experiment on M14 it was 17.7 µM (inactive). Further, the GI50 in the experiment on NCI-H460 is 17.5 µM (inactive); in the experiment on SF-268, 22.5 µM (inactive); in the experiment on SF-295, 16.3 µM (inactive); in the experiment on SK-OV-3, 17.6 µM (inactive); with SN12C it was 17.7 µM (inactive); with UO-31 it was 16.3 µM (inactive).
Turning to `CCN(CC)CC(=O)N1CCc2c([nH]c3ccccc23)C1c1cccnc1` (stereo not given), the GI50 in the experiment with 786-0 is > 100 µM (inactive); in the experiment with A549, > 100 µM (inactive); in the experiment with CAKI-1, > 100 µM (inactive); with HCT-116, > 100 µM (inactive); with HOP-62 it was > 100 µM (inactive); with HOP-92, 31.4 µM (inactive). Also, the GI50 with M14, with NCI-H460, in the experiment on SF-268, with SF-295, in the experiment on SK-MEL-5 and with SK-OV-3 was > 100 µM (inactive) throughout. For the same molecule, the GI50 was > 100 µM (inactive) in the experiment on SN12C and 26.9 µM (inactive) with UO-31.
For the molecule `O=C1CCC2(c3ccccc3)Nc3ncccc3N12` (stereo not given), the GI50 with 786-0, in the experiment with A549, in the experiment with CAKI-1, in the experiment with HOP-62, with HOP-92 and with M14 was > 100 µM (inactive) throughout. Moreover, the GI50 with NCI-H460, with SF-268, in the experiment on SF-295, with SK-MEL-2, in the experiment with SK-MEL-5 and in the experiment on SK-OV-3 was > 100 µM (inactive) in each case. Also, the GI50 with SN12C and in the experiment with UO-31 was > 100 µM (inactive) throughout.
In the case of `COc1ccc(C23c4ccc(OC)cc4CC2(c2ccc([N+](=O)[O-])cc2)Cc2cc(OC)ccc23)cc1` (stereo not given), the GI50 in the experiment with 786-0 is > 100 µM (inactive); in the experiment with A549, > 21.2 µM (inactive); in the experiment on CAKI-1 it was > 27.2 µM (inactive); in the experiment on HCT-116, > 37.2 µM (inactive); in the experiment with HOP-62, > 14.1 µM (inactive); in the experiment on HOP-92, > 21.9 µM (inactive). Besides, the GI50 in the experiment on M14 is > 46.2 µM (inactive); with NCI-H460 it was > 89.1 µM (inactive); in the experiment with SF-268, > 22.3 µM (inactive); in the experiment on SK-MEL-2 it was > 74.1 µM (inactive); in the experiment with SK-MEL-5, > 21.7 µM (inactive); with SK-OV-3 it was > 28.2 µM (inactive). The values for the GI50 in the experiment on SN12C and with UO-31 were > 50.6 µM (inactive) and > 24.3 µM (inactive), respectively.
